Data published in patent US20250248979A1, “NOVEL GPX4 INHIBITORS AND USES THEREOF” (THE TRUSTEES OF COLUMBIA UNIVERSITY IN THE CITY OF NEW YORK, priority 2022, published 2025).

What follows are molecules tested against T1, GPX4 (Homo sapiens, UniProt P36969) (assay: GPX4 activity assay in cell lysates (NADPH-coupled)). Details: not given.
T1 sequence (P36969 1-170 isoform P36969-2): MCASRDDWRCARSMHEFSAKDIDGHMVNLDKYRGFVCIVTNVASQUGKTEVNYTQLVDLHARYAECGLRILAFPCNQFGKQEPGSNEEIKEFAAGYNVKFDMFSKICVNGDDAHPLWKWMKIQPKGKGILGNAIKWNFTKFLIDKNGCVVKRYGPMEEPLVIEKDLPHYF
Type: biochemical
Parameters: endogenous in cells; host or cells: A-673 cell lysate
Protocol: Determination of GPX4 activity in cell lysates was performed as previously described by Roveri et al. 1994 with minor modifications. Briefly, the assay measures the consumption of NADPH, which has a characteristic absorbance at 340 nm, over time as a proxy for GPX4 activity. The rationale for this is that as GPX4 reduces phospholipid hydroperoxides, it oxidizes glutathione, which is then regenerated by glutathione reductase at the expense of NADPH. NADPH is added to the assay in excess such that the reduction of oxidized glutathione is not the rate-limiting reaction in the assay. Thus, the resulting reduction in NADPH absorbance over time reflects GPX4 activity.
The GPX4-specific substrate phosphatidylcholine hydroperoxide (PCOOH) was prepared by enzymatic hydroperoxidation. Specifically, 0.3 mM phosphatidylcholines (Sigma-Aldrich) were incubated with 0.7 mg soybean lipoxidase type IV (Sigma-Aldrich) in 22 mL of 0.2 M Tris-HCl pH 8.8 with 3 mM sodium deoxycholate at room temperature under continuous stirring for 30 minutes. A Sep-Pak C18 cartridge (Waters-Millipore) was pre-washed with methanol and equilibrated with water, then the substrate mixture was loaded. The column was washed with 10 volumes of water and PCOOH was eluted with 2 mL of methanol.
To prepare the cell lysate containing native GPX4, A-673 cells were cultured with 20 nM sodium selenite to confluency over two days then harvested and washed with cold PBS. Cells were then resuspended at 10 million cells per 1 mL LCW lysis buffer (0.5% peroxide-free Triton X-100, 0.5% sodium deoxycholate salt, 150 mM NaCl, 20 mM Tris-HCl pH 7.5, 10 mM EDTA, 30 mM sodium pyrophosphate, and complete protease inhibitor cocktail), vortexed for 30 seconds, and incubated on ice for 15 minutes. After lysis, the lysates were centrifuged at 14,000×g and 4° C. for 15 minutes. The supernatants were transferred to new pre-chilled tube and the debris pellet was discarded. The protein concentration in the lysate was determined for normalization using the BCA Protein Assay Kit (Pierce).
To measure GPX4 activity, 50 μL of cell lysate was combined with 200 μL activity assay buffer (0.1% Triton X-100, 100 mM Tris-HCl pH 8.0, 10 mM sodium azide, 5 mM EDTA, 0.6 IU/mL glutathione reductase, 0.5 mM NADPH and 3 mM GSH) and compounds of interest in a clear 96-well plate and incubated at 37° C. for 45 minutes. Compounds were dissolved in DMSO. All conditions were tested in triplicate. PCOOH substrate was added to the mixture to initiate GPX4 activity just before reading the plate. The absorbance of NADPH at 340 nm was monitored kinetically over time for 25 minutes. Buffer-only controls and controls without substrate containing only the methanol vehicle were performed to assess background and baseline signal. GPX4 activity was calculated as previously reported by Stolwijk et al. 2020 and results were analyzed in GraphPad Prism 9.

GPX4 inhibitory activity, result in words	SMILES
inactive during GPX4 inhibition	Cn1nc(C(=O)NC(C)(C)COC(=O)CCl)c2ccc(-c3ccc(C(F)(F)F)cc3)cc21 [QW-502]
reduced the inhibitory activity	COc1cc(-c2ccc3c(C(=O)NC(C)(C)COC(=O)CCl)nn(C)c3c2)ccc1Cl [QW-556]

Same assay, conditions: 5 μM

SMILES	GPX4% inhibition at 5 μM [%]
Cn1nc(C(=O)NC(C)(C)COC(=O)CCl)c2ccc(-c3ccccc3Cl)cc21 [QW-492]	45.7 ± 4.9
CC(C)Oc1ccc(Cl)cc1-c1ccc2c(C(=O)NC(C)(C)COC(=O)CCl)nn(C)c2c1 [QW-495]	22.9 ± 7.5
Cn1nc(C(=O)NC(C)(C)COC(=O)CCl)c2ccc(-c3ccc(F)c(F)c3)cc21 [QW-500]	57.5 ± 5.3
Cn1nc(C(=O)NC(C)(C)COC(=O)CCl)c2ccc(-c3ccc(OCc4ccccc4)cc3)cc21 [QW-503]	65.3 ± 3.2
Cn1nc(C(=O)NC(C)(C)COC(=O)CCl)c2ccc(C3=CCc4ccccc43)cc21 [QW-514]	44.8 ± 6.6
Cn1nc(C(=O)NC(C)(C)COC(=O)CCl)c2ccc(-c3ccc(N4CCOCC4)nc3)cc21 [QW-537]	46.1 ± 2.7
Cn1nc(C(=O)NC(C)(C)COC(=O)CCl)c2ccc(-c3ccc(CN4CCOCC4)cc3)cc21 [QW-539]	49.6 ± 4.5
Cn1nc(C(=O)NC(C)(C)COC(=O)CCl)c2ccc(-c3ccc(N4CCOCC4)cc3)cc21 [QW-547]	72.0 ± 0.4
C=Cc1ccc(-c2ccc3c(C(=O)NC(C)(C)COC(=O)CCl)nn(C)c3c2)cc1 [QW-554]	41.4 ± 4.5
C#Cc1ccc(-c2ccc3c(C(=O)NC(C)(C)COC(=O)CCl)nn(C)c3c2)cc1 [QW-555]	20.2 ± 0.5

Continued, values first:

GPX4% inhibition at 5 μM [%]	SMILES
77.1 ± 10.4	Cn1nc(C(=O)NC(C)(C)COC(=O)CCl)c2ccc(-c3cccc(F)c3)cc21 [QW-493]
76.8 ± 2.3	Cn1nc(C(=O)NC(C)(C)COC(=O)CCl)c2ccc(-c3ccc(Cl)cc3)cc21 [QW-494]
−10.2 ± 6.5	Cn1nc(C(=O)NC(C)(C)COC(=O)CCl)c2ccc(-c3ccc(C(F)(F)F)cc3)cc21 [QW-502]
28.3 ± 3.0	CC(C)Oc1ccccc1-c1ccc2c(C(=O)NC(C)(C)COC(=O)CCl)nn(C)c2c1 [QW-509]
67.2 ± 1.9	Cn1nc(C(=O)NC(C)(C)COC(=O)CCl)c2ccc(-c3cccc(OC(=O)CCl)c3)cc21 [QW-510]
50.1 ± 2.4	Cn1nc(C(=O)NC(C)(C)COC(=O)CCl)c2ccc(-c3ccc(COC(=O)CCl)cc3)cc21 [QW-513]
62.2 ± 5.1	Cn1nc(C(=O)NC(C)(C)COC(=O)CCl)c2ccc(-c3coc4ccccc34)cc21 [QW-535]
46.6 ± 2.3	CCOc1ncc(-c2ccc3c(C(=O)NC(C)(C)COC(=O)CCl)nn(C)c3c2)cn1 [QW-536]
75.6 ± 4.5	Cn1nc(C(=O)NC(C)(C)COC(=O)CCl)c2ccc(-c3cnc4ccccc4c3)cc21 [QW-542]
80.2 ± 1.8	COc1cc(-c2ccc3c(C(=O)NC(C)(C)COC(=O)CCl)nn(C)c3c2)ccc1Cl [QW-556]
91.2 ± 2.3	CSc1ccc(-c2ccc3c(C(=O)NC(C)(C)COC(=O)CCl)nn(C)c3c2)cc1Cl [QW-558]
54.7 ± 3.4	COc1ccc(-c2ccc3c(C(=O)NC(C)(C)COC(=O)CCl)nn(C)c3c2)cc1F [QW-567]

Same assay, conditions: 5 μM; generation 2

GPX4% inhibition at 5 μM [%]	SMILES
−15.1 ± 8.4	Cn1nc(C(=O)NCCCCCC=O)c2ccc(Br)cc21 [QW-497]
−10.7 ± 7.8	Cn1nc(C(=O)NCCCCCC(O)S(=O)(=O)[O-])c2ccc(Br)cc21.[Na+] (stereo not drawn) [QW-517]
−9.8 ± 6.7	Cn1nc(C(=O)NCCCCCCOC(=O)CCl)c2ccc(Br)cc21 [QW-520]
−19.3 ± 9.9	Cn1nc(C(=O)NCCCCCOC(=O)CCl)c2ccc(Br)cc21 [QW-521]
−24.5 ± 0.5	Cn1nc(C(=O)NCCCCC=O)c2ccc(Br)cc21 [QW-527]
−36.6 ± 4.8	Cn1nc(C(=O)NCCCCC(O)S(=O)(=O)[O-])c2ccc(Br)cc21.[Na+] (stereo not drawn) [QW-534]
